Test results published in patent US6566403B1 (priority 1997, dated 2003).
Where two headings read alike, the source gives them in different places.

Key:
Pythium ultimum = assay: Fungitoxicity assay against Pythium ultimum (mycelial dry weight, liquid broth); type: cell-based; details: for Relative Effectiveness against Pythium ultimum: EC50 of racemic mixture divided by EC50 of the enantiomer, growth 48 hours at 25° C.
Procedure: (§1) A series of dilutions of each test compound was prepared in dimethyl sulfoxide, and 0.1 ml of each dilution was added to 19.9 ml of a liquid asparagine-sucrose broth (Erwin, D. C. and Katznelson, K., 1971, Can. J. Microbiol. 7, 15) in 9 cm diameter petri dishes to give the desired concentrations of test compound in the medium. Each plate was inoculated with a mycelial plug, 7 mm in diameter, taken from the growing edge of a culture of Pythium ultimum grown on potato dextrose agar. Two replicate plates were used for each treatment. The increase in mycelial dry weight was determined after growth for 48 hours at 25° C. with shaking on a gyrotary shaker at 60 rpm. Pythium EC50 values were calculated from dose response curves. As used herein, the terminology “EC50” means the concentration of test compound required to inhibit growth by 50% as compared to a control lacking the test compound.
(§2) In order to compare the activity of individual isomers with that of the corresponding racemic mixture, the relative effectiveness of each compound was calculated. As used herein, relative effectiveness means the EC50 value for a racemic mixture of the particular compound divided by the EC50 value for one enantiomer. The relative effectiveness of the racemic mixture itself is 1.0.

Phytophthora capsici = assay: Fungitoxicity assay against Phytophthora capsici (mycelial dry weight, liquid broth); type: cell-based; details: EC50 of racemic mixture divided by EC50 of the enantiomer; growth 96 h
Procedure: as §1
The procedure described above for Pythium ultimum was used except that the mycelial plugs used for inoculation were taken from the growing edge of cultures of Phytophthora capsici grown on V-8 juice agar, pH 7.0, containing 200 ml V-8 juice, 4 g CaCO3, and 20 g agar per liter, and the increase in mycelial dry weight was determined after growth for 96 h.
as §2

Botrytis cinerea [1] = assay: Fungitoxicity assay against Botrytis cinerea (colony diameter on agar); type: cell-based; details: EC50 of racemic mixture divided by EC50 of the enantiomer; 48 hours at 25° C.
Procedure: A series of dilutions of each test compound was prepared in dimethyl sulfoxide and 125 microliters […] of each dilution was added to 25 ml of molten potato dextrose agar to give the desired concentrations of test compound. The mixtures were poured immediately into 9 cm diameter petri dishes. Each plate was inoculated with a 7 mm diameter mycelial plug taken from the growing edge of a 5 day old culture of B. cinerea grown on potato dextrose agar.
as §2

Phytophthora infestans [2] = type: in vivo; details: tomato seedlings, treated before inoculation, 6 days after inoculation
Plasmopara viticola [3] = assay: Grape Downy Mildew (GDM); type: in vivo; details: grape plants, treated before inoculation, scored after 7-8 days
Procedure: (§3) Cultures of Plasmopara viticola were maintained on grape seedlings derived from tissue culture. Leaves with sporulating mildew were rinsed in water to obtain the desired concentration of spores. A DeVilbiss atomizer was used to apply a suspension of spores to fungicide-treated lower leaves of the grape plants. The plants were kept in a humidity cabinet at 100% relative humidity for 24 hours and then placed in a controlled temperature chamber at 25° C. for 7-8 days before scoring. Disease evaluations were recorded as percent disease control.

Phytophthora infestans [4] = type: in vivo; details: tomato, compound applied two days after inoculation
Plasmopara viticola [5] = assay: Grape Downy Mildew-Curative (GDC); type: in vivo; details: compound applied two days after inoculation
Procedure: as §3
The curative properties of the test compounds were evaluated using the same procedure as that set forth above in the section entitled “GRAPE DOWNY MILDEW”, except that the test compound was applied to the plants two days after inoculation with the pathogen.

Botrytis cinerea [6] = assay: Gray Mold on Tomato-Curative (BOC); type: in vivo; details: tomato plants, compound applied 2 days after inoculation
Procedure: Botrytis cinerea cultures were maintained on potato dextrose agar. A dextrose solution was used to wash spores from sporulating cultures. A DeVilbiss atomizer was used to apply the resulting spore suspension to tomato plants. The plants were placed in a humidity cabinet at 100% relative humidity, and the test compound was applied to the plants after 2 days. The plants were returned to the humidity cabinet for a further 3-5 days before scoring. Disease evaluations were recorded as percent disease control.

Compound	Relative Effectiveness against Pythium ultimum (Pythium ultimum)	Relative Effectiveness against Phytophthora capsici (Phytophthora capsici)	Relative Effectiveness against Botrytis cinerea (Botrytis cinerea [1])	TLB percent disease control (Phytophthora infestans [2]; 19 ppm)	TLB percent disease control (Phytophthora infestans [2]; 75 ppm)	TLB percent disease control (Phytophthora infestans [2]; 300 ppm)	GDM percent disease control (Plasmopara viticola [3]; 19 ppm)	GDM percent disease control (Plasmopara viticola [3]; 75 ppm)	GDM percent disease control (Plasmopara viticola [3]; 300 ppm)	TLC percent disease control (Phytophthora infestans [4]; 19 ppm)	TLC percent disease control (Phytophthora infestans [4]; 75 ppm)	TLC percent disease control (Phytophthora infestans [4]; 300 ppm)	GDC percent disease control (Plasmopara viticola [5]; 19 ppm)	GDC percent disease control (Plasmopara viticola [5]; 75 ppm)	GDC percent disease control (Plasmopara viticola [5]; 300 ppm)	BOC percent disease control (Botrytis cinerea [6]; 19 ppm)	BOC percent disease control (Botrytis cinerea [6]; 75 ppm)	BOC percent disease control (Botrytis cinerea [6]; 300 ppm)	further results
CCC(C)(NC(=O)c1cc(Cl)c(C)c(Cl)c1)C(=O)CCl (racemic) [Compound 1, racemate]	1.00	1.00	1.00	85%	100%	95%	99%	100%	100%	80%	90%	95%	50%	50%	90%	50%	75%	90%	–
CCC(C)(NC(=O)c1cc(Cl)cc(Cl)c1)C(=O)CCl (racemic) [Compound 2, racemate]	1.00	–	1.00	–	–	–	–	–	–	–	–	–	–	–	–	–	–	–	–
CC[C@](C)(NC(=O)c1cc(Cl)cc(Cl)c1)C(=O)CCl [Compound 2, S enantiomer]	2.68	–	1.85	–	–	–	–	–	–	–	–	–	–	–	–	–	–	–	–
CC[C@](C)(NC(=O)c1cc(Cl)c(C)c(Cl)c1)C(=O)CCl [Compound 1, S enantiomer, (S)-N-(3-chloro-1-ethyl-1-methyl-2-oxopropyl)-3,5-dichloro-4-methylbenzamide]	2.18	2.13	2.03	90%	100%	100%	99%	100%	100%	90%	99%	95%	75%	90%	99%	75%	90%	95%	–
CC[C@@](C)(NC(=O)c1cc(Cl)cc(Cl)c1)C(=O)CCl [Compound 2, R enantiomer]	0.055	–	0.17	–	–	–	–	–	–	–	–	–	–	–	–	–	–	–	–
CCC(C)(NC(=O)c1cc(Cl)c(C)c(Cl)c1)C(=O)CCl (stereo not drawn) [Compound 1]	–	–	–	–	–	–	–	–	–	–	–	–	–	–	–	–	–	–	Relative Effectiveness (expected) against Pythium ultimum (Pythium ultimum; 50 % S in the Mixture of racemate and S enantiomer): 1.000; Relative Effectiveness (expected) against Pythium ultimum (Pythium ultimum; 60 % S in the Mixture of racemate and S enantiomer): 1.236; Relative Effectiveness (expected) against Pythium ultimum (Pythium ultimum; 70 % S in the Mixture of racemate and S enantiomer): 1.472; Relative Effectiveness (expected) against Pythium ultimum (Pythium ultimum; 80 % S in the Mixture of racemate and S enantiomer): 1.708; Relative Effectiveness (expected) against Pythium ultimum (Pythium ultimum; 90 % S in the Mixture of racemate and S enantiomer): 1.944; Relative Effectiveness (expected) against Pythium ultimum (Pythium ultimum; 100 % S in the Mixture of racemate and S enantiomer): 2.180
CC[C@@](C)(NC(=O)c1cc(Cl)c(C)c(Cl)c1)C(=O)CCl [Compound 1, R enantiomer, (R)-N-(3-chloro-1-ethyl-1-methyl-2-oxopropyl)-3,5-dichloro-4-methylbenzamide]	0.037	0.0072	<0.076	25%	50%	75%	0%	0%	0%	0%	0%	0%	0%	0%	0%	0%	0%	0%	–
